“And” between values parts separate entries of the source, which are not always exact repeats. Identical values can stand only once.
Columns and labels:
[1] = system: NF-κB stimulated by the TNFR1 agonist antibody; assay: HEK-293 reporter gene assay, anti-TNFR1 agonist antibody stimulus; format: cell-based, human; settings: agonist antibody 0.3 μg/mL; compound up to 10 µM
Description: Stimulation of HEK-293 cells by TNF leads to activation of the NF-κB pathway. The HEK-Blue^TM CD40L SEAP (secreted embryonic alkaline phosphatase) reporter cell line used to determine TNF activity (InvivoGen, #hkb-CD40, cells were described as mycoplasma free when purchased and were tested using Mycoalert [Lonza] after each batch of assay vial preparation). Compounds were titrated in DMSO and pre-incubated with TNF at a concentration giving half maximal response (10 pM for human or 20 pM for mouse) or the anti-human TNFR1 agonist antibody (R&D Systems. #AF 225) for 1 h. Cells were added to the compound/stimulus mixture and further incubated for 18 h. SEAP was measured using the colorimetric substrate HEK-Blue Detect^TM or QUANTI-Blue^TM from InvivoGen. Percentage inhibitions for compound dilutions were calculated between a DMSO control and maximum inhibition (by excess anti-TNF biologic, or NF-κB inhibitor–TPCA-1 [Tocris #2559, R&D Systems]). The IC50 was determined as the point of inflexion between the fitted minimum and maximum of the compound dose response curve, calculated using 4PL fitted curve. Mean IC50s are reported as a mean of at least two experiments. Dose response curves for TNF and the anti-human TNFR1 agonist antibody are shown in Supplementary Fig. 9.

mouse TNF = target: T1, mouse TNF (Mus musculus, UniProt P06804); assay: Mouse TNF induced neutrophil recruitment in vivo; settings: for CD45+ GR-1+ cells/mL in the peritoneal cavity: mouse TNF, individual mice
T1 construct: stabilise an asymmetrical form of the soluble TNF trimer
T1 sequence (P06804 80-235 limits assumed): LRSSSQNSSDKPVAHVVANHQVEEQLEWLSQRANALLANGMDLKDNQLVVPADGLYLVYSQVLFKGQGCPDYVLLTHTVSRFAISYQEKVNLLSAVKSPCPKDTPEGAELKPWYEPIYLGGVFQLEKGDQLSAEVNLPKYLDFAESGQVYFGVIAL
Description: All in vivo studies were reviewed by an internal Ethical Review Body (ERB) and conducted in accordance with the Animals (Scientific Procedures) Act 1986, EU Directive 2010/63/EU. […] Anti-TNFα biologics, CDP571[21] (10 mg/kg) and etanercept (30 mg/kg), diluted in PBS, were dosed intravenously prior to human and mouse TNF challenge. Two hours after the TNF challenge, mice were sacrificed and the peritoneal cavity lavaged with 3 mL of FACS buffer. An aliquot (0.3 mL) of lavage fluid was used to assess the number CD45^+GR1^+ cells by flow cytometry. Briefly, the cells were treated with ACK lysis buffer, washed and suspended in FACS buffer prior to staining with FITC anti-mouse CD45 and PE anti-mouse GR1. Data are shown as mean ± standard error of the number of CD45^+GR-1^+ cells. Statistical significance (*p < 0.05, **p < 0.01, ****p < 0.0001) was determined using one-way ANOVA with Dunnett’s multiple comparison test.

Mouse free fraction = format: in vitro ADME; settings: read-out: Mouse free fraction (Fu)
TNF = TNF (Homo sapiens, UniProt P01375); assay: TNF L929 cytotoxicity assay, human TNF; format: cell-based; parameters: stabilise an asymmetrical form of the soluble TNF trimer
Description: TNF (human or mouse) kills L929 cells which have been compromised by incubation with a sub-lethal concentration of actinomycin D, and this effect is inhibited with TNF biologics. Compounds were titrated in DMSO, and then pre-incubated with human or mouse TNF for 1 h. […] L929 cytotoxicity was measured by the addition of CellTitreGlo (Promega). Luminescence was measured after an incubation of at least 20 min in the dark. Percentage inhibition was calculated between unstimulated wells (maximum signal), and wells with TNF, DMSO and actinomycin D (minimum signal). The IC50 was calculated as the point of inflexion for a 4PL fitted curve. Mean IC50s are reported as a mean of at least two experiments.

Chain of TNF (P01375 77-233 limits assumed): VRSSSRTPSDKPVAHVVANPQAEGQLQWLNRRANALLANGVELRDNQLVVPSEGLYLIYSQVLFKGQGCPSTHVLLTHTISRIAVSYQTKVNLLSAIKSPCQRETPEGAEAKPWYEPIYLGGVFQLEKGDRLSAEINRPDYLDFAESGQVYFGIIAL

Cc1ccc(C)c(Cn2c(C(O)c3ccncc3)nc3ccc(-c4cnn(C)c4)cc32)c1 (centres unmarked) [UCB-9260]
inhibition of NF-κB stimulated by TNFR1 agonist antibody [1]: no inhibition | CD45+ GR-1+ cells/mL in the peritoneal cavity (mouse TNF; 10mg/kg): 36683.8 cells/mL and 23446.5 cells/mL and 65459.0 cells/mL and 42287.7 cells/mL and 32860.3 cells/mL and 46170.3 cells/mL and 36366.5 cells/mL | CD45+ GR-1+ cells/mL in the peritoneal cavity (mouse TNF; 30mg/kg): 68892.4 cells/mL and 37218.6 cells/mL and 45217.2 cells/mL and 30219.5 cells/mL and 27497.1 cells/mL and 16597.5 cells/mL | CD45+ GR-1+ cells/mL in the peritoneal cavity (mouse TNF; 100mg/kg): 11514.8 cells/mL and 33134.0 cells/mL and 13657.2 cells/mL and 18518.9 cells/mL and 17977.4 cells/mL and 18837.9 cells/mL and 21785.8 cells/mL and 22316.6 cells/mL | CD45+ GR-1+ cells/mL in the peritoneal cavity (mouse TNF; 300mg/kg): 6821.7 cells/mL and 12941.2 cells/mL and 5881.9 cells/mL and 6788.4 cells/mL and 5482.5 cells/mL and 47242.4 cells/mL and 15367.3 cells/mL and 2338.2 cells/mL | dose with significant inhibition of neutrophil recruitment (mouse TNF; oral, murine TNF i.p., CD45+GR1+ cells): 10 mg/kg | fraction unbound (Mouse free fraction): 0.024 | Luminescence units (TNF; compound -logM 4.6): 12619 Luminescence units | Luminescence units (TNF; compound -logM 5.08): 13471 Luminescence units | Luminescence units (TNF; compound -logM 5.56): 13691 Luminescence units | Luminescence units (TNF; compound -logM 6.03): 12384 Luminescence units | Luminescence units (TNF; compound -logM 6.51): 8197 Luminescence units | Luminescence units (TNF; compound -logM 6.99): 7043 Luminescence units | Luminescence units (TNF; compound -logM 7.46): 6740 Luminescence units | Luminescence units (TNF; compound -logM 7.94): 4803 Luminescence units | Luminescence units (TNF; compound -logM 8.42): 3698 Luminescence units | Luminescence units (TNF; compound -logM 8.9): 3202 Luminescence units

— publication PMC6923382, “Small molecules that inhibit TNF signalling by stabilising an asymmetric form of the trimer” (Nature Communications, 2019)
